Measurements as given in ChEMBL document CHEMBL3632594, “Synthesis of scutellarein derivatives to increase biological activity and water solubility” (Bioorg Med Chem, 2015).
≈ marks a conversion by molar mass, not a printed value.

Tests used:
[1] = Neuroprotective activity against H2O2-induced cytotoxicity in rat PC12 cells assessed as cell viability at 25 uM by MTT assay; type: functional; details: PC-12, read-out: INH
[2] = Neuroprotective activity against H2O2-induced cytotoxicity in rat PC12 cells assessed as cell viability at 50 uM by MTT assay; type: functional; details: PC-12, read-out: INH
[3] = Antithrombotic activity in New Zealand white rabbit platelet poor plasma assessed as increase in prothrombin time at 100 uM incubated for 3 mins by coagulometer based assay; type: functional, Oryctolagus cuniculus
[4] = Solubility of compound in water at 0.1 to 10 ug/ml by UV spectrophotometry relative to scutellarein; type: physicochemical; details: buffer
[5] = Antithrombotic activity in New Zealand white rabbit platelet poor plasma assessed as increase in activated partial thromboplastin time at 100 uM incubated for 3 mins by coagulometer based assay; type: functional, Oryctolagus cuniculus
[6] = Solubility of compound in water at 0.1 to 10 ug/ml by UV spectrophotometry; type: physicochemical
[7] = Antithrombotic activity in New Zealand white rabbit platelet poor plasma assessed as prolongation of thrombin time at 100 uM incubated for 3 mins by coagulometer based assay; type: functional, Oryctolagus cuniculus
[8] = Antioxidant activity assessed as DPPH radical scavenging by spectrophotometric analysis; type: physicochemical
[9] = Antithrombotic activity in New Zealand white rabbit platelet poor plasma assessed as fibrinogen at 100 uM incubated for 3 mins by coagulometer based assay; type: functional, Oryctolagus cuniculus

| Structure (SMILES) | neuroprotection (% cell viability vs H2O2 cytotoxicity) at 25 µM [1] | cell viability at 50 µM [2] | PT [3] | fold change (FC) [4] | APTT [5] | solubility [6] | TT [7] | IC50 [8] | Activity [9] |
| --- | --- | --- | --- | --- | --- | --- | --- | --- | --- |
| CN(C)C(=O)Oc1ccc(-c2cc(=O)c3c(O)c(O)c(O)cc3o2)cc1 | 48.7% | 71.2% | 8.1 s | 1.4 | 27.78 s | 9.56 µg/mL (≈ 26.8 µM) | 24.3 s | 37.2 µM | 5.56 g/L |
| O=C(Oc1ccc(-c2cc(=O)c3c(O)c(O)c(O)cc3o2)cc1)N1CCOCC1 | 73.9% | 94.2% | 8.55 s | 2.34 | 28.28 s | 15.3 µg/mL (≈ 38.4 µM) | 24.62 s | 19.3 µM | 5.52 g/L |
| CCN(CC)C(=O)Oc1ccc(-c2cc(=O)c3c(O)c(O)c(O)cc3o2)cc1 | 51.3% | 75.2% | 7.67 s | 1.35 | 28.2 s | 9.23 µg/mL (≈ 24 µM) | 24.36 s | 32.6 µM | 5.21 g/L |
| CC(C)N(C(=O)Oc1ccc(-c2cc(=O)c3c(O)c(O)c(O)cc3o2)cc1)C(C)C | 71.7% | 93.4% | 7.97 s | 1.27 | 27.97 s | 8.67 µg/mL (≈ 21 µM) | 24.57 s | 17 µM | 5.65 g/L |
| CN1CCN(C(=O)Oc2ccc(-c3cc(=O)c4c(O)c(O)c(O)cc4o3)cc2)CC1 | 68.6% | 92.5% | 7.03 s | 2.2 | 26.87 s | 15.1 µg/mL (≈ 36.5 µM) | 24.52 s | 18.9 µM | 5.42 g/L |
| CN(C)C(=O)COc1ccc(-c2cc(=O)c3c(O)c(O)c(O)cc3o2)cc1 | 46.5% | 68.1% | 7.17 s | 1.36 | 29.25 s | 9.32 µg/mL (≈ 25.1 µM) | 22.27 s | 80.7 µM | 5.14 g/L |
| O=C(COc1ccc(-c2cc(=O)c3c(O)c(O)c(O)cc3o2)cc1)N1CCOCC1 | 43.4% | 64.6% | 7.33 s | 1.38 | 27.1 s | 9.45 µg/mL (≈ 22.9 µM) | 19.9 s | 83.3 µM | 5.49 g/L |
| CCN(CC)C(=O)COc1ccc(-c2cc(=O)c3c(O)c(O)c(O)cc3o2)cc1 | 44.7% | 66.4% | 7.45 s | 1.31 | 26.4 s | 8.95 µg/mL (≈ 22.4 µM) | 20.92 s | 81.3 µM | 5.37 g/L |
| CN(C)CCOc1ccc(-c2cc(=O)c3c(O)c(O)c(O)cc3o2)cc1 | 35.8% | 56.2% | 6.82 s | 1.35 | 29.97 s | 9.28 µg/mL (≈ 26 µM) | 22.97 s | 215 µM | 5.11 g/L |
| O=c1cc(-c2ccc(OCCN3CCOCC3)cc2)oc2cc(O)c(O)c(O)c12 | 32.3% | 48.2% | 6.7 s | 1.37 | 29.05 s | 9.4 µg/mL (≈ 23.5 µM) | 19.7 s | 264 µM | 5.23 g/L |
| CCN(CC)CCOc1ccc(-c2cc(=O)c3c(O)c(O)c(O)cc3o2)cc1 | 38.5% | 58.4% | 6.9 s | 1.27 | 30.45 s | 8.68 µg/mL (≈ 22.5 µM) | 22.03 s | 205 µM | 5.72 g/L |
| CN(C)CCCOc1ccc(-c2cc(=O)c3c(O)c(O)c(O)cc3o2)cc1 | 33.6% | 52.2% | 6.15 s | 1.24 | 26.58 s | 8.5 µg/mL (≈ 22.9 µM) | 19.9 s | 231 µM | 5.28 g/L |
| O=c1cc(-c2ccc(OCCCN3CCOCC3)cc2)oc2cc(O)c(O)c(O)c12 | 28.3% | 44.2% | 6.63 s | 1.25 | 28.25 s | 8.56 µg/mL (≈ 20.7 µM) | 19.6 s | 274 µM | 5.42 g/L |
| O=c1cc(-c2ccc(O)cc2)oc2cc(O)c(O)c(O)c12 [SCUTELLAREIN] | 64.6% | 91.2% | 5.93 s | 1 | 36.65 s | – | 24.4 s | 22.6 µM | 6.84 g/L |
| O=C(O)[C@H]1O[C@@H](Oc2cc3oc(-c4ccc(O)cc4)cc(=O)c3c(O)c2O)[C@H](O)[C@@H](O)[C@@H]1O [SCUTELLARIN] | 53.1% | 79.2% | 6.28 s | – | 34.18 s | – | 23.08 s | 27.9 µM | 6.13 g/L |
